“And” between values parts separate entries of the source, which are not always exact repeats. Identical values can stand only once. Where no end group is shown, it is not given here.
What was measured:
[1] = system: RSV MARM B7 (F protein K272T); test: Microneutralization assay of MARM B7; settings: selection Synagis ®
[2] = system: RSV MARM B9 (F protein K272Q); test: Microneutralization assay of MARM B9; settings: selection Synagis ®
[3] = system: RSV MARM #10 (F protein K272E, N276Y); test: Microneutralization assay of MARM #10; settings: MARM #10, K272E and N276Y, selection A4b4
[4] = system: RSV MARM B2 (F protein K272M); test: Microneutralization assay of MARM B2; settings: selection Synagis ®
[5] = system: RSV MARM B1 (F protein K272N); test: Microneutralization assay of monoclonal antibody resistant mutant (MARM) B1; settings: selection Synagis ®
[6] = system: RSV MARM #13 (F protein N262K, K272Q); test: Microneutralization assay of MARM #13; settings: MARM #13, N262K and K272Q, selection Synagis ® then A4b4
[7] = system: RSV MARMs #6 and NuMARM3 (F protein K272E); test: Microneutralization assay of K272E MARMs; settings: for Neutralization of RSV: residue 272 altered from lysine (K) to glutamic acid (E)
[8] = biological target: T1, MEDI-524 Fab (Homo sapiens, UniProt P01834+P01857); test: Isothermal titration calorimetry (ITC) of F peptides with MEDI-524 Fab; assay type: binding; settings: at 18° C., 25 mM His, pH 6.07
T1 construct: 0.088 mg/mL (1.88 μM-46.3 KDa) of MEDI-524 Fab
T1 sequence (P01857 with tags, fused parts or gaps limits assumed, other chains not shown): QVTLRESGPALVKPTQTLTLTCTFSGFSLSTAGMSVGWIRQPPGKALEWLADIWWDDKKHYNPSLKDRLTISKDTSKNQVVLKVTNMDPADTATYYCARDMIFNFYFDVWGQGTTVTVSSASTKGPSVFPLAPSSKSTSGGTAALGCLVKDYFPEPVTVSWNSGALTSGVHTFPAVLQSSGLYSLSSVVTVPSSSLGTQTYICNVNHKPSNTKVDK
Procedure: For this set of experiments, […] (1.16 μM-148.4 KDa) of MEDI-524 Mab and 0.088 mg/mL (1.88 μM-46.3 KDa) of MEDI-524 Fab, both in 25 mM His, pH 6.07 were used. On the other hand, 250 μL of 1 mg/mL of the different peptides dissolved in H2O, were provided by ABC. The peptides were then diluted into the appropriate volume of buffer to give a final concentration of 50 μM. The ITC experiments were run at 18° C. with the macromolecule (Mab or Fab) in the cell, by doing ˜26 injections of 10 μL of peptides, spaced 360 sec with constant stirring. The data fitting was accomplished by subtracting the average value of the few last injections as the buffer and unspecific heat of dilution contributions. […] A note apart is the fact that the observed binding capacity (N) increases with the length of the peptide, indicating possibly an extra conformational factor in the binding event. The entropic contribution: For the peptides SEQ ID NOs.24 and 26, the entropic factor seems to be similar; the extra amino acids at the end of the N-terminal seems not to affect greatly the binding parameters. On the other hand, the elongation at the C-terminal seems to decrease slightly the binding enthalpy, the binding constant, as well as the entropic factor. […] The binding constant seems to be smaller (weaker) for both 30-mer peptides respect to the 26-mer.

[9] = biological target: Numax™ (Homo sapiens, UniProt P01834+P01857); test: Biacore kinetic analysis of F peptides on captured Numax™; assay type: binding; settings: F peptide 100 nM over captured Numax™, Biacore 3000
Numax™, sequence (P01857 with tags, fused parts or gaps limits assumed, other chains not shown): as above
Procedure: All studies were performed using Sensor Chip CM5 (Biacore AB, Uppsala, Sweden) which contains a carboxymethyl (CM) dextran matrix and a Biacore® 3000 surface plasmon resonance (SPR) biosensor (Biacore AB, Uppsala, Sweden).
Numax™ was captured via a high-affinity interaction between the Fc portion of Numax™ and a goat anti-human IgG(Fc) (KPL, Inc., Gaithersburg, Md.). Goat anti-human IgG(Fc) was covalently attached to the CM dextran matrix using amine coupling chemistry. Two anti-human IgG(Fc)-specific surfaces were created. Numax™ was diluted to 10.9 μg/mL with HBS-EP and flowed for 1 min. across one of the anti-human IgG (Fc) surfaces at a flow rate of 5 μL/min. The other anti-human IgG(Fc) surface was used as a reference surface. F peptide was prepared by dilution in HBS-EP (0.01 M Hepes pH 7.4, 0.15 M NaCl, 3 mM EDTA, 0.005% surfactant P20) to a final concentration of 100 nM. F peptide was injected for 1 min. in a serial-flow manner across the reference surface and the Numax™-specific surface. Dissociation of bound F peptide was monitored for 2 min in the presence of HBS-EP. After this dissociation period, Numax™ and F peptide were removed with a 30-sec injection of 10 mM glycine pH 1.7 (Biacore AB, Uppsala, Sweden). Because of the removal of Numax™, it was necessary to create a new Numax™-specific surface prior to the injection of each F peptide.

[10] = system: MEDI-524 Mab; test: Isothermal titration calorimetry (ITC) of F peptides with MEDI-524 Mab; assay type: binding; settings: 25 mM His, pH 6 at 10° C.
Procedure: To evaluate the binding properties of the wild-type peptide (SEQ ID NO.28) to Numax™/MEDI-524 by using the ITC technique. The MEDI-524 Mab was titrated with SEQ ID NO.28 in the basis buffer 25 mM His, pH 6 at 10° C. SEQ ID NO.28: (MW=2732.14, no W, Y, or C). A working solution of 55 μM was prepared by diluting 30 μL of a 5 mg/mL peptide solution with 970 μL of 25 mM His, pH 6 buffer to be used for the ITC titrations. A 1.15 μM (0.1706 mg/ml) working solution of MEDI-524 was used for the experiments (MW 148400, A280=1.47).
For this set of experiments, […] (1.16 μM-148.4 KDa) of MEDI-524 Mab and 0.088 mg/mL (1.88 μM-46.3 KDa) of MEDI-524 Fab, both in 25 mM His, pH 6.07 were used. On the other hand, 250 μL of 1 mg/mL of the different peptides dissolved in H2O, were provided by ABC. The peptides were then diluted into the appropriate volume of buffer to give a final concentration of 50 μM. The ITC experiments were run at 18° C. with the macromolecule (Mab or Fab) in the cell, by doing ˜26 injections of 10 μL of peptides, spaced 360 sec with constant stirring. The data fitting was accomplished by subtracting the average value of the few last injections as the buffer and unspecific heat of dilution contributions. […]

[11] = biological target: Numax™ (MEDI-524) (Homo sapiens, UniProt P01834+P01857); test: Binding ELISA of F-peptides; settings: peptide coated on plate, MEDI-524 detected with anti-human IgG-HRP
Numax™ (MEDI-524), sequence (P01857 with tags, fused parts or gaps limits assumed, other chains not shown): as above
Procedure: Based in part upon the results of the MARM analysis above, F peptides were synthesized (done by AnaSpec, Inc. San Jose, Calif.). Each well of the assay plate was coated with […] of […] of a particular soluble RSV F-Peptide overnight at 2-8° C. After the plate was aspirated and washed with PBS/0.05% Tween-20 buffer, it was blocked by incubating with PBS/0.05% Tween-20/0.5% BSA buffer for one hour at ambient temperature. The plate was washed and MEDI-524 standard curve samples, test samples, MEDI-524 Reference Standard, and negative control were added to the washed plate. Following a one-hour incubation at ambient temperature, the plate was washed, and […] of a goat anti-human IgG-HRP (horseradish peroxidase) at 1:16,000 dilution was added to the plate. After washing, […] of 3,3′,5,5′-tetramethylbenzidine (TMB) substrate was then added to the plate and incubated at ambient temperature protected from light for 10 minutes. The enzymatic reaction was stopped by adding […] of 2N H2SO4, and the absorbance at 450 nm was measured using a microplate reader. […] After meeting all system suitability requirements, as well as meeting the criteria of the parallelism test, the ED50 ratio of the test sample to Reference Standard was calculated, and the results were expressed as a percentage of the Reference Standard binding activity. […]

[12] = biological target: RSV F protein; test: BIAcore analysis of Numax Ref. Std.; assay type: binding; settings: Numax reference standard
From the text: BIAcore analysis can measure the kinetic interactions of anti-RSV antibodies with RSV F peptides by surface plasmon resonance using a BIAcore 1000, 2000, or 3000 instrument (Biacore, Uppsala, Sweden). Purified recombinant, C-terminally truncated F protein was covalently coupled to a (1-ethyl-3-[3-dimethylaminopropyl]carbodiimide hydrochloride)/N-hydroxysuccinimide-activated CM5 sensor chip at a low protein density (see Johnsson et al. (1991) Anal. Biochem. 198, 268-277). The unreacted active ester groups were blocked with 1 M ethanolamine. For use as a reference, when the BIAcore 2000 or 3000 instrument was used, a blank surface, containing no antigen, was prepared under identical immobilization conditions. To minimize binding variations caused by different lots of F proteins, most of the antibodies were measured against the same lot of F protein. In several cases when different lots of F proteins were used, their binding to an anti-RSV antibody was used as a reference to make sure that these lots had similar binding characteristics to the lot that is used mainly. A serial 2-fold dilution series of purified antibodies, ranging from 0.2 to 100 nm in HBS/Tween 20 buffer (BIAcore), was injected over the F-protein and reference cell surfaces, which were connected in series. In each measurement, the residual antibody was removed from the sensor chip by a brief pulse of 100 mM HCl. The binding curves were globally fitted to a 1:1 Langmuir binding model using the BIAevaluation program. This algorithm calculates both kon and koff. The apparent equilibrium dissociation constant, Kd, was deduced as the ratio of the two rate constants, koff/kon.

[13] = system: RSV with F protein mutations at position 272 other than K272E; test: Microneutralization assay of MARMs, other mutations at position 272; settings: all other mutations indicated at position 272
[14] = MARM NuMARM3, K272E, selection Numax ™

“Synagis ®: humanized RSV monoclonal antibody directed against the F glycoprotein of RSV [reference compound]” was tested, and the “Neutraliz by antibody ?” value [1] was “No”, the “Neutraliz by antibody ?” value [2] was “No” and the “Neutraliz by antibody ?” value [3] was “No”. For the same molecule, the “Neutraliz by antibody ?” value [4] was “No”, the “Neutraliz by antibody ?” value [5] was “No” and the “Neutraliz by antibody ?” value [6] was “No”. The “Neutraliz by antibody ?” value ([6]; listed as Synagis®) was “lost their ability to neutralize”, the “Neutraliz by antibody ?” value ([7]; MARM #6, K272E, selection A4b4) was “No” and the “Neutraliz by antibody ?” value [7, 14] was “No”. For the same molecule, the “Neutralization of RSV” value [7] was “longer neutralized RSV”.

With “NSELLSLIHDMPITNDQKKLMSNNVQIVRQ-NH2 (C-terminus assumed) [SEQ ID NO: 25]” the “Ka (association constant)” value [8] was 6.5e+06 M⁻¹, the ΔHbinding [8] was -10.4 kcal/mol and the ΔSbinding [8] was −4.7. The ka [9] was 2.50E+05 and 3.62E+05, the kd [9] was 1.81E−03 and 1.97E−03 and the Kd [9] was 7.23 nM and 5.44 nM.

With “NSELLSLINDMPITNDQKKLMSNN-NH2 [SEQ ID NO.28]” the “binding strength compared to the SEQ ID NO.24 peptide” value [10] was ~3 orders of magnitude lower.

In the case of “F peptide with a histidine at position 262: F peptide with histidine at position 262 tested in the Numax binding ELISA; probably SEQ ID No. 13 (NSELLSLIHDMPITNDQKKLMSNN; Derived from respiratory syncytial virus sequence)”, the “Binding to Numax™ compared with wild-type F protein epitope (SEQ ID NO.1)” value [11] is reported as “more tightly”.

“STYMLTNSELLSLIHDMPITNDQKKLMSNN-NH2 (C-terminus assumed) [SEQ ID NO: 26]” was tested, and the “Ka (association constant)” value [8] was 7.1e+06 M⁻¹, the ΔHbinding [8] was -11.4 kcal/mol and the ΔSbinding [8] was −8.1. It also gave a ka [9] of 2.43E+05, a kd [9] of 5.52E−03 and a Kd [9] of 22.7 nM.

B1: Numax ™: enhanced potency RSV-specific monoclonal antibody derived by in vitro affinity maturation of palivizumab (antibody, listed as Chimaera sp., V domains shown)
VH: QVTLRESGPALVKPTQTLTLTCTFSGFSLSTAGMSVGWIRQPPGKALEWLADIWWDDKKHYNPSLKDRLTISKDTSKNQVVLKVTNMDPADTATYYCARDMIFNFYFDVWGQGTTVTVSS
VL: DIQMTQSPSTLSASVGDRVTITCSASSRVGYMHWYQQKPGKAPKLLIYDTFFLDSGVPSRFSGSGSGTEFTLTISSLQPDDFATYYCFQGSGYPFTFGGGTKVEIK
B1 was tested, and the “Neutraliz by antibody ?” value [1] was “Yes”, the “Neutraliz by antibody ?” value [2] was “Yes” and the “Neutraliz by antibody ?” value ([2]; listed as Numax™) was “did not knock out Numax™ neutralization”. The Kd [12] was 0.004 nM, the ka [12] was 4.70E+05 and the kd [12] was 1.88E−06. For the same molecule, the “Neutraliz by antibody ?” value [3] was “No”, the “Neutraliz by antibody ?” value [4] was “Yes” and the “Ability to neutralize RSV” value [13] was “retain its ability to neutralize”. The “Neutraliz by antibody ?” value [5] was “Yes”, the “Neutraliz by antibody ?” value [6] was “No” and the “Neutraliz by antibody ?” value ([6]; listed as Numax™) was “lost their ability to neutralize”. The “Neutraliz by antibody ?” value ([7]; MARM #6, K272E, selection A4b4) was “No”, the “Neutraliz by antibody ?” value [7, 14] was “No” and the “Neutralization of RSV” value [7] was “longer neutralized RSV”.

Reference: patent publication US20060099220A1, “Antibodies against and methods for producing vaccines for respiratory syncytial virus” (MEDIMMUNE, INC., priority 2004, published 2006)
